In BigSolDB 2.1:

NC(=O)c1ccccc1
solubility (mole fraction)
Conditions	283.15 K	288.15 K	293.15 K	298.15 K	303.15 K	308.15 K	313.15 K	318.15 K	323.15 K
in ethanol	0.041	0.0478	0.0567	0.0652	0.0761	0.0859	0.102	0.122	0.142
in ethyl acetate	0.0217	0.024	0.0281	0.0325	0.0381	0.0453	0.0527	0.0618	0.0717
in methanol	0.061	0.0692	0.08	0.088	0.104	0.123	0.138	0.162	0.186
in n-propanol	0.0329	0.0399	0.0471	0.0552	0.0653	0.0754	0.0892	0.105	0.126
